From patent EP1976513B1 (priority 2006, dated 2007) come the findings set out here.

Where a name gives a salt, the structure may show the parent alone. Read-outs that look alike come from different tables or passages of the source. Bounds are passed on as bounds.

Assay [1] concerns the target human serotonin reuptake transporter (Homo sapiens, UniProt P31645). Description: cell-based.
The target in assay [2] is T1, human dopamine reuptake transporter (Homo sapiens, UniProt Q01959).
T1 construct: expressed in transfected cells; host or cells: CHO-K1 or HEK293
Description: cell-based.

Setting [3] is: recombinant human serotonin transporter (SERT), read-out: Human IC50 (nM) hSERT.
Where [4] appears, read: recombinant human dopamine transporter (DAT), read-out: Human IC50 (nM) hDAT.
[5] abbreviates: Human IC50 (nM) hSERT, recombinant human serotonin transporter (SERT).

T1 sequence (Q01959 whole entry): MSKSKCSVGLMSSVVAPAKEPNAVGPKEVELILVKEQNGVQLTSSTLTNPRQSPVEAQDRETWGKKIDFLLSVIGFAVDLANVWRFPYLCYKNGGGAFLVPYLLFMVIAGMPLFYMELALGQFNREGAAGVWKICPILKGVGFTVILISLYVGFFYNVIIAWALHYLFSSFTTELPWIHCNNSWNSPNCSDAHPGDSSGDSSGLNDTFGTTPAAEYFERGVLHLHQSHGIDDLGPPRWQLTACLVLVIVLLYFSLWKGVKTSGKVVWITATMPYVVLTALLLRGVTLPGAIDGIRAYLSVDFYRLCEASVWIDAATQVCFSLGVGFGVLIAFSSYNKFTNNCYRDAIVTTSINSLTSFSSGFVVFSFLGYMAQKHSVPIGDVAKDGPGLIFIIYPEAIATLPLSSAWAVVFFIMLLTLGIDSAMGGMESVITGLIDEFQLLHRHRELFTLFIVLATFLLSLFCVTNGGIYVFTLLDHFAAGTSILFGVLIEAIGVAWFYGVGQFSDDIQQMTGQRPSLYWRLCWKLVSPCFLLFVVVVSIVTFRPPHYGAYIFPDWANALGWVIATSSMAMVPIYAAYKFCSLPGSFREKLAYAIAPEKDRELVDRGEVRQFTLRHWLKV
Chain of human serotonin reuptake transporter (P31645 whole entry): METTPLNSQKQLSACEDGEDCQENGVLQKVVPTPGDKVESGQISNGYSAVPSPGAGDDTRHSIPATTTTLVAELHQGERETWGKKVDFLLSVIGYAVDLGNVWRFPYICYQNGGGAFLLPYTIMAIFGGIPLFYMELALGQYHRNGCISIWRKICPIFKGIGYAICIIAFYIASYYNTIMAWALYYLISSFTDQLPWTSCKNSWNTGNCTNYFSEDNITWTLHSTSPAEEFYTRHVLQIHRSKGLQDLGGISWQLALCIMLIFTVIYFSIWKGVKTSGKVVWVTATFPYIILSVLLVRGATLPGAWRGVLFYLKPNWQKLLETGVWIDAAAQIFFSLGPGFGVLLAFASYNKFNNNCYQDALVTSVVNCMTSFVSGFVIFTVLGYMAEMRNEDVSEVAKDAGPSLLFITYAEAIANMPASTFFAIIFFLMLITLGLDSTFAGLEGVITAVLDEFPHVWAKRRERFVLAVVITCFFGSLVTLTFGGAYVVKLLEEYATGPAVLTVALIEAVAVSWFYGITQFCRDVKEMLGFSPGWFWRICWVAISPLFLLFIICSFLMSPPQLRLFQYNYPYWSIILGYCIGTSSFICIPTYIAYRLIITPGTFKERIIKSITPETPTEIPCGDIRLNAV

Regarding `COC1CCC(CN)(c2ccc(Cl)c(Cl)c2)CC1` (stereo not shown) [Compound 255, (1-(3,4-dichlorophenyl)-4-methoxycyclohexyl)methanamine], the IC50 in assay [1] (setting [3]) stood at 1420 nM; in assay [2] (setting [4]), 170 nM.

For `CNCC1(c2ccc3c(c2)OCO3)CCC(C)(O)CC1` (stereo not shown) [Compound 239, 4-(benzo[d][1,3]dioxol-5-yl)-1-methyl-4-((methylamino)methyl)cyclohexanol], the IC50 in assay [1] (setting [3]) was found to be 8660 nM; in assay [2] (setting [4]) it was 9450 nM.

Turning to `CNCC1(c2ccc(F)cc2)CCCCC1` [Compound 90, 1-(1-(4-fluorophenyl)cyclohexyl)-N-methylmethanamine], the IC50 in assay [1] (setting [5]) came to 839 nM; in assay [2] (setting [4]) it was 3360 nM.

Consider `NCC1(c2ccc3ccccc3c2)CCC(F)CC1` (stereo not shown) [Compound 213, (4-fluoro-1-(naphthalen-2-yl)cyclohexyl)methanamine], for which the IC50 in assay [1] (setting [3]) came out at 283 nM; in assay [2] (setting [4]) it was 337 nM.

As to `CN(C)CC1(c2ccc3c(c2)OCO3)CCC(C)(O)CC1` (stereo not shown) [Compound 242, 4-(benzo[d][1,3]dioxol-5-yl)-4-((dimethylamino)methyl)-1-methylcyclohexanol], the IC50 in assay [1] (setting [3]) is 7660 nM; in assay [2] (setting [4]) it was greater than 10000 nM.

Take `NCC1(c2ccc(Cl)c(Cl)c2)CCC1` [Compound 1, (1-(3,4-dichlorophenyl)cyclobutyl)methanamine]: the IC50 in assay [1] (setting [3]) was found to be 1290 nM; in assay [2] (setting [4]), 103 nM.

Consider `CC(N)C1(c2ccc(-c3ccoc3)cc2)CCCCC1` (stereo not shown) [Compound 20, 1-(1-(4-(furan-3-yl)phenyl)cyclohexyl)ethanamine], for which the IC50 in assay [1] (setting [3]) came out at 24 nM; in assay [2] (setting [4]), 275 nM.

Take `CNCC1(c2ccc3ccccc3c2)CC=CCC1` (racemic) [Compound 292, N-methyl-1-(1-(naphthalen-2-yl)cyclohex-3-enyl)methanamine]: the IC50 in assay [1] (read-out: Human IC50 (nM) hSERT) was found to be 360 nM; in assay [2] (Human IC50 (nM) hDAT) it was 89 nM.

`NCC1(c2ccc3ccccc3c2)CC=CCC1` (racemic) [Compound 291, (1-(naphthalen-2-yl)cyclohex-3-enyl)methanamine]: the IC50 in assay [1] (setting [3]) worked out at 185 nM; in assay [2] (setting [4]) it was 72 nM.

In the case of `CCC1(O)CCC(CN)(c2ccc(Cl)c(Cl)c2)CC1` (stereo not shown) [Compound 281, 4-(aminomethyl)-4-(3,4-dichlorophenyl)-1-ethylcyclohexanol], the IC50 in assay [1] (setting [3]) is 256 nM; in assay [2] (setting [4]), 384 nM.

Take `CCC(N(C)C)C1(c2ccc(Cl)c(Cl)c2)CCCCC1` (single isomer, unassigned) [61 E2, 1-(1-(3,4-dichlorophenyl)cyclohexyl)-N,N-dimethylpropan-1-amine]: the IC50 in assay [1] (setting [5]) is 9440 nM; in assay [2] (setting [4]), 116 nM.

Regarding `CN1Cc2c(ccc3c2OCO3)C2(CCC(C)(O)CC2)C1` (single isomer, unassigned) [Compound 294, 4',8-dimethyl-8,9-dihydro-7H-spiro([1,3]dioxolo[4,5-h]isoquinoline-6,1'-cyclohexan]-4'-ol], the IC50 in assay [1] (setting [3]) and in assay [2] (setting [4]) was greater than 10000 nM throughout.

As for `NCC1(c2ccc3ccccc3c2)CCC(O)CC1` (stereo not shown) [Compound 207, 4-(aminomethyl)-4-(naphthalen-2-yl)cyclohexanol], the IC50 turned out to be 142 nM in assay [1] (setting [3]) and 1020 nM in assay [2] (setting [4]).

Turning to `NCC1(c2ccc(Cl)c(Cl)c2)CCC(F)(F)CC1` [Compound 267, (1-(3,4-dichlorophenyl)-4,4-difluorocyclohexyl)methanamine], the IC50 in assay [1] (setting [3]) turned out to be 1290 nM; in assay [2] (setting [4]), 147 nM.

Regarding `CN(C)CC1(c2ccc3ccccc3c2)CCC(F)CC1` (stereo not shown) [Compound 235, 1-(4-fluoro-1-(naphthalen-2-yl)cyclohexyl)-N,N-dimethylmethanamine], the IC50 in assay [1] (setting [3]) was found to be 9 nM; in assay [2] (setting [4]) it was 92 nM.

`CN(C)CC1(c2ccc3ccccc3c2)CCC(O)(CF)CC1` (stereo not shown) [Compound 244, 4-((dimethylamino)methyl)-1-(fluoromethyl)-4-(naphthalen-2-yl)cyclohexanol]: the IC50 in assay [1] (setting [3]) turned out to be 14 nM; in assay [2] (setting [4]), 334 nM.

On to `CNCC1(c2ccc3ccccc3c2)CCC(O)(CF)CC1` (stereo not shown) [Compound 245, 1-(fluoromethyl)-4-((methylamino)methyl)-4-(naphthalen-2-yl)cyclohexanol], for which the IC50 in assay [1] (setting [3]) is 538 nM; in assay [2] (setting [4]) it was 2270 nM.

In the case of `CC1(O)CCCC(CN)(c2ccc(Cl)c(Cl)c2)C1` (single isomer, unassigned) [193 E1, 3-Aminomethyl-3-(3,4-dichloro-phenyl)-1-methyl-cyclohexanol], the IC50 in assay [1] (setting [3]) is 416 nM; in assay [2] (setting [4]), 266 nM.

Consider `CNCC1(c2ccc(Cl)cc2Cl)CCCCC1` [Compound 65, 1-(1-(2,4-dichlorophenyl)cyclohexyl)-N-methylmethanamine], for which the IC50 in assay [1] (setting [5]) was 1620 nM; in assay [2] (setting [4]) it was 1940 nM.

`NCC1(c2cccc(C(F)(F)F)c2)CCCCC1` [Compound 36, (1-(3-(trifluoromethyl)phenyl)-cyclohexyl)methanamine]: the IC50 in assay [1] (setting [5]) was 6550 nM; in assay [2] (setting [4]) it was greater than 10000 nM.

Consider `NCC1(c2ccc(F)c3ccccc23)CCCCC1` [Compound 40, (1-(4-fluoronaphthalen-1-yl)cyclohexyl)methanamine], for which the IC50 in assay [1] (setting [3]) came out at 753 nM; in assay [2] (setting [4]) it was 2320 nM.

As to `NCC1(c2ccc(F)cc2)CCCCC1` [Compound 91, (1-(4-fluorophenyl)cyclohexyl)methaneamine], the IC50 in assay [1] (setting [5]) is greater than 10000 nM; in assay [2] (setting [4]), 1830 nM.

`COC1CCCC(CN)(c2ccc(Cl)c(Cl)c2)C1` (single isomer, unassigned) [195 E2]: the figures for the IC50 in assay [1] (setting [3]) and in assay [2] (setting [4]) were 45 nM and 5320 nM, respectively.

On to `OC1Cc2ccccc2C1NCC1(c2ccc(Cl)c(Cl)c2)CCCCC1` (racemic) [Compound 113, 1-((1-(3,4-dichlorophenyl)cyclohexyl)methylamino)-2,3-dihydro-1H-inden-2-ol], for which the IC50 in assay [1] (setting [3]) was found to be 2570 nM; in assay [2] (setting [4]), 285 nM.

Consider `NCC1(c2ccc(Cl)cc2)CCCCC1` [Compound 29, (1-(4-chlorophenyl)cyclohexyl)methanamine hydrochloride], for which the IC50 in assay [1] (setting [3]) stood at 5240 nM; in assay [2] (setting [4]) it was 195 nM.

As for `CC(N)C1(c2ccc(-c3ccoc3)cc2)CCCCC1` (single isomer, unassigned) [20 E2, 1-(1-(4-(furan-3-yl)phenyl)cyclohexyl)ethanamine], the IC50 in assay [1] (setting [3]) was 60 nM; in assay [2] (setting [4]) it was 437 nM.

`CC(N(C)C)C1(c2ccc(OC(F)(F)F)cc2)CCCCC1` (single isomer, unassigned) [63 E1, N,N-dimethyl-1-(1-(4-(trifluoromethoxy)phenyl)cyclohexyl)ethanamine]: the figures for the IC50 in assay [1] (setting [3]) and in assay [2] (setting [4]) were 194 nM and 6540 nM, respectively.

Consider `c1ccc2cc(C3(C4CCCN4)CCCCC3)ccc2c1` (stereo not shown) [Compound 297, 2-(1-(naphthalen-2-yl)cyclohexyl)pyrrolidine], for which the IC50 worked out at 40 nM in assay [1] (setting [3]) and 13 nM in assay [2] (setting [4]).

Take `COC1CCCC(CN)(c2ccc(Cl)c(Cl)c2)C1` (single isomer, unassigned) [Compound 194]: the IC50 in assay [1] (setting [3]) amounted to 330 nM; in assay [2] (setting [4]), 2370 nM.

Take `CN(C)CC1(c2ccc3ccccc3c2)CCC(Cl)CC1` (stereo not shown) [Compound 230, 1-(4-chloro-1-(naphthalen-2-yl)cyclohexyl)-N,N-dimethylmethanamine]: the results for the IC50 in assay [1] (setting [3]) and in assay [2] (setting [4]) were 30 nM and 11 nM, respectively.

Regarding `NCC1(c2ccc(Cl)c(F)c2)CCCCC1` [Compound 98, (1-(4-chloro-3-fluorophenyl)cyclohexyl)-methanamine], the IC50 in assay [1] (setting [5]) was greater than 10000 nM; in assay [2] (setting [4]), 419 nM.

On to `CN(C)CC1(c2ccc(F)c3ccccc23)CCCCC1` [Compound 70, 1-(1-(4-fluoronaphthalen-1-yl)cyclohexyl)-N,N-dimethylmethanamine], for which the IC50 in assay [1] (setting [3]) amounted to 29 nM; in assay [2] (setting [4]), 214 nM.

In the case of `NCC1(c2ccc3ccccc3c2)CCC(O)(CF)CC1` (stereo not shown) [Compound 217, 4-(aminomethyl)-1-(fluoromethyl)-4-(naphthalen-2-yl)cyclohexanol], the IC50 in assay [1] (setting [3]) was determined as 47 nM; in assay [2] (setting [4]) it was 1970 nM.

As for `CNCC1(c2ccc(Cl)c(Cl)c2)CCC(F)CC1` (stereo not shown) [Compound 264, 1-(1-(3,4-dichlorophenyl)-4-fluorocyclohexyl)-N-methylmethanamine], the IC50 in assay [1] (setting [3]) was 1050 nM; in assay [2] (setting [4]), 17 nM.

Regarding `NCC1(c2cccc(F)c2)CCCCC1` [Compound 37, (1-(3-fluorophenyl)cyclohexyl)methanamine], the IC50 in assay [1] (setting [5]) and in assay [2] (setting [4]) was greater than 10000 nM each time.

With `NCC1(c2ccc3ccccc3c2)CCC(F)CC1` (stereo not shown) [Compound 212, (4-fluoro-1-(naphthalen-2-yl)cyclohexyl)methanamine], the IC50 was 91 nM in assay [1] (setting [3]) and 75 nM in assay [2] (setting [4]).

Take `CC1(O)CCC(CN)(c2ccc3c(c2)OCO3)CC1` (stereo not shown) [Compound 215, 4-(aminomethyl)-4-(benzo[d][1,3]dioxol-5-yl)-1-methylcyclohexanol]: the IC50 in assay [1] (setting [3]) stood at 4190 nM; in assay [2] (setting [4]), 6240 nM.

On to `NCC1(c2ccc(Cl)c(Cl)c2)CCC(O)C1` (stereo not drawn) [trans 167, 3-(aminomethyl)-3-(3,4-dichlorophenyl)cyclopentanol], for which the IC50 came out at 4910 nM in assay [1] (setting [5]) and 145 nM in assay [2] (setting [4]).

Turning to `CNC(C)C1(c2ccc3ccccc3c2)CCC(C)(O)CC1` (single isomer, unassigned) [231 E2, 1-methyl-4-(1-(methylamino)ethyl)-4-(naphthalen-2-yl)cyclohexanol], the values for the IC50 in assay [1] (setting [3]) and in assay [2] (setting [4]) were 63 nM and 83 nM, respectively.

Consider `CNC(C)C1(c2ccc(OC(F)(F)F)cc2)CCCCC1` (single isomer, unassigned) [64 E1, N-methyl-1-(1-(4-(trifluoromethoxy)phenyl)cyclohexyl)ethanamine], for which the IC50 in assay [1] (setting [3]) was 58 nM; in assay [2] (Human IC50 (nM) hDAT), greater than 10000 nM.

As for `CCCC1(O)CCC(CN)(c2ccc(Cl)c(Cl)c2)CC1` (stereo not shown) [Compound 284, 4-(aminomethyl)-4-(3,4-dichlorophenyl)-1-propylcyclohexanol], the IC50 amounted to 7900 nM in assay [1] (setting [3]) and 2460 nM in assay [2] (setting [4]).

For orientation: IC50 means the concentration needed to halve the response being measured.
